Reference: patent publication US10045952B2, “Anti-Viral Compound and Composition” (Forest Herbs Research Limited, priority 2013, dated 2018)
In brackets after ≈: the same amount, converted by molar mass. Entries after “also recorded” stand apart in the source; their conditions may differ.

Tests used:
HSV-1 [1] = assay: Crystal violet assay, anti-viral activity against HSV-1 in Vero cells; format: cell-based, Herpes simplex type 1 virus
Protocol: A wild-type HSV-1 obtained from ESR, Upper Hutt, was cultured in Vero (African Green Monkey kidney) tissue culture cells. HSV-1 virus was added to confluent Vero cell monolayers and allowed to infect until >70% cytopathic effect was observed. The infected cultures were then frozen and thawed three times and centrifuged at 3000 rpm for 15 minutes. The supernatant was stored at −80° C. until use.
(§1) The crystal violet assay depends on the ability of adherent cell lines such as Vero to stick to the bottom of tissue culture plates. Damaged or dead cells lose their ability to adhere and are removed during a washing process. Viable cells remaining are stained with crystal violet, which is then released from the cells and measured in a spectrophotometer.
(§2) Vero cells were seeded at 3×10^5 cells/ml overnight at 37° C. in 96-well tissue culture plates. When cells had reached confluency, 50 μl of the growth media was removed and replaced with 25 μl of virus and 25 μl of test product. Controls were the same as those used in the xCelligence assay. The assay was terminated after 96 hours which is the length of time taken to see CPE in the control wells.

HSV-1 [2] = assay: Crystal violet assay, anti-viral activity against HSV-1 in HaCaT cells; format: cell-based, Herpes simplex type 1 virus
Protocol: The crystal violet assay depends on the ability of adherent cell lines such as Vero to stick to the bottom of tissue culture plates. Damaged or dead cells lose their ability to adhere and are removed during a washing process. Viable cells remaining are stained with crystal violet, which is then released from the cells and measured in a spectrophotometer. Vero cells were seeded at 3×10^5 cells/ml overnight at 37° C. in 96-well tissue culture plates. When cells had reached confluency, 50 μl of the growth media was removed and replaced with 25 μl of virus and 25 μl of test product. Controls were the same as those used in the xCelligence assay. The assay was terminated after 96 hours which is the length of time taken to see CPE in the control wells. In the first test (results shown in FIGS. 2A and B), the HSV-1 anti-viral activity of pure polygodial was assessed in comparison to Acyclovir in both Vero cells (FIG. 2A) and HaCaT cells (FIG. 2B).

[3] = test system: Vero cells and HaCaT cells; assay: Cytotoxicity to the cells used in the in vitro anti-viral testing (crystal violet assay); format: cell-based, African Green Monkey; details: at the concentrations tested in the anti-viral assay
Protocol: as §1, §2
In this test, it was confirmed that polygodial is not cytotoxic at the concentrations tested because where strong anti-viral activity is present, the cells are alive and uninfected by the virus.

cells = details: literature statement; cited from earlier work
[4] = 4 μl/ml Acyclovir, virus only control infection rate about 75%

With `Nc1nc2c(ncn2COCCO)c(=O)[nH]1` [Acyclovir, reference compound] the “uninfected cells, Acyclovir control, first test (FIGS. 2A and B)” value (HSV-1 [1]; 4 μl/ml Acyclovir, Vero and HaCaT not distinguished, virus only control infection rate about 80%) was 80%, the “uninfected Vero cells, Acyclovir control, second test (FIG. 3A)” value (HSV-1 [1]; [4]) was 60% and the “uninfected HaCaT cells, Acyclovir control, second test (FIG. 3B)” value (HSV-1 [2]; [4]) was 75%.

With `CC1(C)CCC[C@]2(C)[C@@H](C=O)C(C=O)=CC[C@@H]12` [polygodial] the MIC (HSV-1 [1]; Human alphaherpesvirus 1, calculated, HSV-1, cell line not distinguished (Vero and HaCaT)) was 600 to 1200 µg/mL (≈ 2.56 to 5.12 mM), the “concentration at which anti-viral effect was comparative to 4 μl/ml Acyclovir” value (HSV-1 [1]; Vero cells) was 0.15 mg/mL and the “concentration at which anti-viral effect was comparative to 4 μl/ml Acyclovir” value (HSV-1 [2]; HaCaT cells) was 0.3125 mg/mL. For the same molecule, the cytotoxicity [3] was “not cytotoxic; also recorded: low cytotoxicity”.

In the case of `CC1(C)CCC[C@@]2(C)[C@H]1CC=C(C=O)[C@]2(O)C=O` [warburganal], the cytotoxicity (cells) is given as “particularly cytotoxic”.
